Experiments:
[1] = biological target: T1, Serine/threonine-protein kinase ULK1 (Homo sapiens) (UniProt O75385); test: Inhibition of T7 bacteriophage fused human ULK1 at 10 uM by KINOMEscan analysis relative to control
T1 sequence (whole entry): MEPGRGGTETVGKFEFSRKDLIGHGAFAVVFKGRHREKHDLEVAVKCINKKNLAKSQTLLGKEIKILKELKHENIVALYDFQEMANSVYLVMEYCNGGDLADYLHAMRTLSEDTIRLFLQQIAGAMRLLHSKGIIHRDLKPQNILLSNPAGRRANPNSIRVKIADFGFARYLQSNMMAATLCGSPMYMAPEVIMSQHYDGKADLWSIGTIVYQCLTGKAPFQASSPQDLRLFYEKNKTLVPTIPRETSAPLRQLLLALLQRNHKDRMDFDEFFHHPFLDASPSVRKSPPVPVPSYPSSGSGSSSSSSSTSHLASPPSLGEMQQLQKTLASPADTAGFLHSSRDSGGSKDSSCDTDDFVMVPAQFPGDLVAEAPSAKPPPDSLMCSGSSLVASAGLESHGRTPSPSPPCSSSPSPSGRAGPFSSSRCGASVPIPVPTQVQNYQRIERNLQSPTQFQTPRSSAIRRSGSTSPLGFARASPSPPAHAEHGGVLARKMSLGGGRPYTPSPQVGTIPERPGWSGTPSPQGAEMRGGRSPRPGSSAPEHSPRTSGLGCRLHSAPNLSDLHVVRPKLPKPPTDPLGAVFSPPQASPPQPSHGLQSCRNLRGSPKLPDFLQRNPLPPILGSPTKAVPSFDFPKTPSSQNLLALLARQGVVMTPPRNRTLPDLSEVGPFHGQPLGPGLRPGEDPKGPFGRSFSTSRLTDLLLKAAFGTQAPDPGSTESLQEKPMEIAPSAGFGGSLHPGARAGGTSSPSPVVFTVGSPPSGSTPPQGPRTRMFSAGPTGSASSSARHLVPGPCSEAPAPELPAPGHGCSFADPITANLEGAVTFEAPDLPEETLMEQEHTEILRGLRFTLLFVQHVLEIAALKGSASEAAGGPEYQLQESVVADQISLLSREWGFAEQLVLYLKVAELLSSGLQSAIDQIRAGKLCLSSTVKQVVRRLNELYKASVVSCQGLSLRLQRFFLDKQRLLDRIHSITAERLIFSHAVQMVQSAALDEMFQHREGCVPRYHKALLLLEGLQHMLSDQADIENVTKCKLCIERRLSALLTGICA

[2] = biological target: TGF-beta receptor type-2 (Homo sapiens) (UniProt P37173); test: Inhibition of T7 bacteriophage fused human TGFBR2 at 10 uM by KINOMEscan analysis relative to control
[3] = biological target: T2, Mitogen-activated protein kinase kinase kinase 7 (Homo sapiens) (UniProt O43318); test: Inhibition of T7 bacteriophage fused human TAK1 at 10 uM by KINOMEscan analysis relative to control
T2 sequence (whole entry): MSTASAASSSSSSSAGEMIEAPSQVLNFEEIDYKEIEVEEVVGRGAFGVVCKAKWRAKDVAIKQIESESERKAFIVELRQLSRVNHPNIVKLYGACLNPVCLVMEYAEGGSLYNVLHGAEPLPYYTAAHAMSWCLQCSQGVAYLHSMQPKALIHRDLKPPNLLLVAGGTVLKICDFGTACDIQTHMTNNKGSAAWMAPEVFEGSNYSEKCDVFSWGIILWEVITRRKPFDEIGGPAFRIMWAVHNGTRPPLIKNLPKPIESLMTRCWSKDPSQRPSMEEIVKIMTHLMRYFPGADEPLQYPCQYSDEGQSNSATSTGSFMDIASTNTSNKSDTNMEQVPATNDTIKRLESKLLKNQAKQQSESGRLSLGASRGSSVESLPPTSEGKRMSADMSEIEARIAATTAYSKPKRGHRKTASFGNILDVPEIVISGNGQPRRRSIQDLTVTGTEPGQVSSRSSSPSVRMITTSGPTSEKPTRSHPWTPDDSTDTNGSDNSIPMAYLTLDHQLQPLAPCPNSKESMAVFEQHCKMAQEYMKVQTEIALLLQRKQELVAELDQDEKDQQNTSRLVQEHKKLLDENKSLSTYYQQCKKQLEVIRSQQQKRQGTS

[4] = biological target: Serine/threonine-protein kinase 32B (Homo sapiens) (UniProt Q9NY57); test: Inhibition of T7 bacteriophage fused human YANK2 at 10 uM by KINOMEscan analysis relative to control
[5] = biological target: Non-receptor tyrosine-protein kinase TYK2 (Homo sapiens) (UniProt P29597); test: Inhibition of T7 bacteriophage fused human TYK2 JH2 pseudokinase domain at 10 uM by KINOMEscan analysis relative to control
[6] = biological target: T3, Serine/threonine-protein kinase TBK1 (Homo sapiens) (UniProt Q9UHD2); test: Inhibition of T7 bacteriophage fused human TBK1 at 10 uM by KINOMEscan analysis relative to control
T3 sequence (whole entry): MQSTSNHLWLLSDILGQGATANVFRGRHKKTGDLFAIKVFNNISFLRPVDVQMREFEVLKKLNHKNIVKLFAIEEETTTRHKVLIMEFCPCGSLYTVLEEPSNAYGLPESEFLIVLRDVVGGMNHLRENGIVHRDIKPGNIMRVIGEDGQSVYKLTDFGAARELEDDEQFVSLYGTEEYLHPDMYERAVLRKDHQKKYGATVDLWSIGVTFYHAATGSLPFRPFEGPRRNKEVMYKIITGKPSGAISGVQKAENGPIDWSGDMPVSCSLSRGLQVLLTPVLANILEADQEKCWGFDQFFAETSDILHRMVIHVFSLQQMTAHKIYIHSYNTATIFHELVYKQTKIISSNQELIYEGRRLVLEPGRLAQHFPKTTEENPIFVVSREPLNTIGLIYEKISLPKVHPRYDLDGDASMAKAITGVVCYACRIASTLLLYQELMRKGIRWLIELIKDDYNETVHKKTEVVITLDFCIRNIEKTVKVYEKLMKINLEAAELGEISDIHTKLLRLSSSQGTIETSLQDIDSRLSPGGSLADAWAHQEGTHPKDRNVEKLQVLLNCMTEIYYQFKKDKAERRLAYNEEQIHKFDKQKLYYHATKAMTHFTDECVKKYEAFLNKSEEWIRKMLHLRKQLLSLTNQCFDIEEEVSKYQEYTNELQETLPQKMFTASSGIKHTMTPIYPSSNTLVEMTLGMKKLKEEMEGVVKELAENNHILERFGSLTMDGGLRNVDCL

[7] = biological target: Ribosomal protein S6 kinase alpha-2 (Homo sapiens) (UniProt Q15349); test: Inhibition of T7 bacteriophage fused human N-terminal RSK3 Kinase domain-1 at 10 uM by KINOMEscan analysis relative to control
[8] = biological target: Tyrosine-protein kinase receptor Tie-1 (Homo sapiens) (UniProt P35590); test: Inhibition of T7 bacteriophage fused human TIE1 at 10 uM by KINOMEscan analysis relative to control
[9] = biological target: Vascular endothelial growth factor receptor 2 (Homo sapiens) (UniProt P35968); test: Inhibition of T7 bacteriophage fused human VEGFR2 at 10 uM by KINOMEscan analysis relative to control
Chain of Vascular endothelial growth factor receptor 2 (Homo sapiens) (P35968 whole entry, the tested form may be a part): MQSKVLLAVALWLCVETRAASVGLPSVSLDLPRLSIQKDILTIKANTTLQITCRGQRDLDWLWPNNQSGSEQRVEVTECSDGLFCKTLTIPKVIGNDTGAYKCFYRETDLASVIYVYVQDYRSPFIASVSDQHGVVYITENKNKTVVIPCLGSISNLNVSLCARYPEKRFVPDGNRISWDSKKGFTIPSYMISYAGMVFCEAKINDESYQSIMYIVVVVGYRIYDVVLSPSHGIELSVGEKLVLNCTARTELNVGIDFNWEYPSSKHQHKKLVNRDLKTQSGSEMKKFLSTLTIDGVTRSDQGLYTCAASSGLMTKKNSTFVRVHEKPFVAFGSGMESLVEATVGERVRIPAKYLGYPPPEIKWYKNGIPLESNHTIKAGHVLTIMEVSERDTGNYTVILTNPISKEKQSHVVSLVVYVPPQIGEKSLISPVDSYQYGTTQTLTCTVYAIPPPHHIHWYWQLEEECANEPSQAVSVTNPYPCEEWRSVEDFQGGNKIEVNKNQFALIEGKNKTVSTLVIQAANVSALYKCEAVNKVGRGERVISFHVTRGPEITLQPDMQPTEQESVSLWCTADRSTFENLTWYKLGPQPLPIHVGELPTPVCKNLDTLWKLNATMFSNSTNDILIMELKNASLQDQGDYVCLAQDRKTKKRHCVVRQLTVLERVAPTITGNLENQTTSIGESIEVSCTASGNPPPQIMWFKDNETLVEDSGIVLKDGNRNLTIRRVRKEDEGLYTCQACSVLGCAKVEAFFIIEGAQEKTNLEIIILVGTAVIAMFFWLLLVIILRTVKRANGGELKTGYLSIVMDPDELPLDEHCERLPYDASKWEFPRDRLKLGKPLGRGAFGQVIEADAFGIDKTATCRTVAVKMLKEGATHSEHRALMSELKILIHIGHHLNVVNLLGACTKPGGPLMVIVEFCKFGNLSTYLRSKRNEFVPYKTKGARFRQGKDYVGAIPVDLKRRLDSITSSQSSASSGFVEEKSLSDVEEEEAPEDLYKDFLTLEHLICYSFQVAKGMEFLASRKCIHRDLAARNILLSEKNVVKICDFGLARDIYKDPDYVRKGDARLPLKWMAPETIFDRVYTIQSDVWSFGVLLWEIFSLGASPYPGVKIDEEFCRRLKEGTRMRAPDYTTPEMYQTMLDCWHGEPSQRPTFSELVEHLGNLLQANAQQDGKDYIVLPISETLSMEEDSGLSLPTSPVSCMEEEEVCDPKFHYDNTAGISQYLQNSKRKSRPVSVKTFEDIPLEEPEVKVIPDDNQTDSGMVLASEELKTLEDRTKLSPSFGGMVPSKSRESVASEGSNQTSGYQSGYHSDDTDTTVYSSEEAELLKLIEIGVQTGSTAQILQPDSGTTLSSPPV

Chain of Non-receptor tyrosine-protein kinase TYK2 (Homo sapiens) (P29597 whole entry, the tested form may be a part): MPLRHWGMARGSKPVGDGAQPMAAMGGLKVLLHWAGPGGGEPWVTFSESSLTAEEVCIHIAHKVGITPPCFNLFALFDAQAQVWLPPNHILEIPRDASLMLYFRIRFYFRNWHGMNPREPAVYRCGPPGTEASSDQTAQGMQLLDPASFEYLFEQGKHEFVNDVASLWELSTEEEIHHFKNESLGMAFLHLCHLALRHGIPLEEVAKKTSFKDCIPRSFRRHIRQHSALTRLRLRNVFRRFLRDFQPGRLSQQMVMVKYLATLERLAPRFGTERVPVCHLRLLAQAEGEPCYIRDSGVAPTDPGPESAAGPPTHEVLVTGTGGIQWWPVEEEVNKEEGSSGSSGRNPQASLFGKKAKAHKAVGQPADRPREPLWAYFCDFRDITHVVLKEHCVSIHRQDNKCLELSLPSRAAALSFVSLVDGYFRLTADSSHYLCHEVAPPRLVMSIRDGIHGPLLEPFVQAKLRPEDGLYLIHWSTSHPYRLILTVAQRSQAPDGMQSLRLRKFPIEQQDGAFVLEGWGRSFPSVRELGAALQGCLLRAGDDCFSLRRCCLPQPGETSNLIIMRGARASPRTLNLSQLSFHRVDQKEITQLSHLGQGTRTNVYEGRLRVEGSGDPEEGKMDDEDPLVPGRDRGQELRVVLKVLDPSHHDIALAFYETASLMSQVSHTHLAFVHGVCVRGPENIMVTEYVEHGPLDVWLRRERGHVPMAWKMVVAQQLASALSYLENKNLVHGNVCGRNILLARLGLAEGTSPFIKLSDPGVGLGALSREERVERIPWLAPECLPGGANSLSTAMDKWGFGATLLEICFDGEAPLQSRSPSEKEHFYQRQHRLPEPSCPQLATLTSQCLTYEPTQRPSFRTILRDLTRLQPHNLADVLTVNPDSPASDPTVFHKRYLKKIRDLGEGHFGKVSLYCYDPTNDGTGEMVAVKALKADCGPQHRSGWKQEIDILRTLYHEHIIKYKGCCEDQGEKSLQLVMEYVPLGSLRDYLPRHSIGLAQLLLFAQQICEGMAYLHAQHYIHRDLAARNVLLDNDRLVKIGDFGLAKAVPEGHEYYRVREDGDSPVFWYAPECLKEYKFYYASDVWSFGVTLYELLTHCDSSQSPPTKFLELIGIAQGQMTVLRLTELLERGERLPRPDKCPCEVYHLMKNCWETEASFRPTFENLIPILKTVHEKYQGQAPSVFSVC
Chain of Serine/threonine-protein kinase 32B (Homo sapiens) (Q9NY57 whole entry, the tested form may be a part): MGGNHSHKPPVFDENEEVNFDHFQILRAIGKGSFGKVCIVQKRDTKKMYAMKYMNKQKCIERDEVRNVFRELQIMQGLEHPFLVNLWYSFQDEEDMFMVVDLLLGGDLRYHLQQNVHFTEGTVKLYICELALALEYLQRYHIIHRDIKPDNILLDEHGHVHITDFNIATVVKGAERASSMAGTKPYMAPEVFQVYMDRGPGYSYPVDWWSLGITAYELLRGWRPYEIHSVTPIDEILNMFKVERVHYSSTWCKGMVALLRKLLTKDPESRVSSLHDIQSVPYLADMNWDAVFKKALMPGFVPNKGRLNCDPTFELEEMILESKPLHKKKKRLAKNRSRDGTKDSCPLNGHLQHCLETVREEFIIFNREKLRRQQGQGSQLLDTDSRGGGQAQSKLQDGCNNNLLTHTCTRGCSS
Chain of Tyrosine-protein kinase receptor Tie-1 (Homo sapiens) (P35590 whole entry, the tested form may be a part): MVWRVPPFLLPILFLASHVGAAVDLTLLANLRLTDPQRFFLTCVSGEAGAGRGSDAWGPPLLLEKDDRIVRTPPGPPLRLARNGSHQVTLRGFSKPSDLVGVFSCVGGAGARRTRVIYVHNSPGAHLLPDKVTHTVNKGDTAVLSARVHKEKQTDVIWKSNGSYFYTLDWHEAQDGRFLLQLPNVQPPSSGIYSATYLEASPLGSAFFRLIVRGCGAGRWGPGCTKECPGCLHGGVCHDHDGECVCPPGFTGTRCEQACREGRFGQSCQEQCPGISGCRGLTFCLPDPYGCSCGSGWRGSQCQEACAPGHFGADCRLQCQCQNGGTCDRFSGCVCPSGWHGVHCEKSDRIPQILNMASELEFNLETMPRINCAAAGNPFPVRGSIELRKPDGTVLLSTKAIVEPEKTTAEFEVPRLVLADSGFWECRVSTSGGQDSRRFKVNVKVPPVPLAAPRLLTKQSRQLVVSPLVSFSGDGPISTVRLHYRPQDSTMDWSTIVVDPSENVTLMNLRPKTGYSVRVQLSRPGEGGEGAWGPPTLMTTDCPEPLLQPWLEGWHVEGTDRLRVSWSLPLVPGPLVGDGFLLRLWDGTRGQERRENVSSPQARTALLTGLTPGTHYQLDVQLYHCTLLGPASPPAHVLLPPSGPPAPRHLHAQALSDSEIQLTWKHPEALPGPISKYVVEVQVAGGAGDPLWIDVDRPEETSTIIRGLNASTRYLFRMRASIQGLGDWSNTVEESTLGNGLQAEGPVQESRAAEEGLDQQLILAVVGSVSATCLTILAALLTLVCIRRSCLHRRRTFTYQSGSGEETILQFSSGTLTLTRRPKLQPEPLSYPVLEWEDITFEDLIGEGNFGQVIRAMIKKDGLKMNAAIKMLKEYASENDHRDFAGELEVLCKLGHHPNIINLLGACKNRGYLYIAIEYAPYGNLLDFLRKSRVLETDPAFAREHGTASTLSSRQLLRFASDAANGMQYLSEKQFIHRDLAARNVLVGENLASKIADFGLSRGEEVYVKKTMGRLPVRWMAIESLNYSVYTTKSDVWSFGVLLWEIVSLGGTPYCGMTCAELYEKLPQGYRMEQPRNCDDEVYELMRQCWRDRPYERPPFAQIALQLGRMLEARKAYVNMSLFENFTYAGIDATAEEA
Chain of TGF-beta receptor type-2 (Homo sapiens) (P37173 whole entry, the tested form may be a part): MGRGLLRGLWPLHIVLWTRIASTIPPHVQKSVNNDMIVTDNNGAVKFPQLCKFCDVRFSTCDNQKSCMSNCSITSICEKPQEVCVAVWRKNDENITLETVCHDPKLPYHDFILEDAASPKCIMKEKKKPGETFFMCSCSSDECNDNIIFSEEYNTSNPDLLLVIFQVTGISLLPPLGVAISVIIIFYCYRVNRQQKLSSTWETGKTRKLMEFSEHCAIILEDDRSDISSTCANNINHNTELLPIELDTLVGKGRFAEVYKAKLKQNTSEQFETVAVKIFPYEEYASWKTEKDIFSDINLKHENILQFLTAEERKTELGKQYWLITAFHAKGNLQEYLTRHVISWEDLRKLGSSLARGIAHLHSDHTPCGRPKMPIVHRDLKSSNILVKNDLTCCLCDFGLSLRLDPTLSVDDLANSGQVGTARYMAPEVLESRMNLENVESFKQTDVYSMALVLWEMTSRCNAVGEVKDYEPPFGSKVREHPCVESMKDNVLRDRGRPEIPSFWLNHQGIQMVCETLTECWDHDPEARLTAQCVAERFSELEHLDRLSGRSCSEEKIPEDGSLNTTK

COc1cc(N2CCC(N3CCN(C)CC3)CC2)ccc1Nc1ncc2c(n1)N(C)c1ccccc1C(=O)N2C
inhibition [1]: 80% | inhibition [2]: 100% | inhibition [3]: 98% | inhibition [4]: 100% | inhibition [5]: 100% | inhibition [6]: 97% | inhibition [7]: 83% | inhibition [8]: 100% | inhibition [9]: 84%

COc1cc(C(=O)N2CCC(N3CCN(C)CC3)CC2)ccc1Nc1ncc2c(n1)N(C1CCCC1)c1ccccc1C(=O)N2C
inhibition [1]: 100% | inhibition [2]: 100% | inhibition [3]: 100% | inhibition [4]: 100% | inhibition [5]: 100% | inhibition [6]: 100% | inhibition [7]: 100% | inhibition [8]: 100% | inhibition [9]: 100%

CCOc1cc(C(=O)N2CCC(N3CCN(C)CC3)CC2)ccc1Nc1ncc2c(n1)N(C1CCCC1)c1ccccc1C(=O)N2C
inhibition [1]: 100% | inhibition [2]: 100% | inhibition [3]: 100% | inhibition [4]: 100% | inhibition [5]: 100% | inhibition [6]: 100% | inhibition [7]: 100% | inhibition [8]: 100% | inhibition [9]: 100%

From ChEMBL document CHEMBL5678810
